This note sets out measurements from PMC4503722, “Novel Phenotypic Outcomes Identified for a Public Collection of Approved Drugs from a Publicly Accessible Panel of Assays” (PLoS ONE, 2015).

Assay [1] deals with ECFC/ADSC co-culture cell nuclei number.
In assay [2] the test system is endothelial tube formation in co-cultures of ECFCs and ADSCs treated with VEGF. Briefly: cells. In kind it is cell-based, human.
The next assay relates to RKO. Briefly: cells. Type of assay: cell-based. The settings on record: for Basal_Viability ATP RKO IC50/EC50: assay number 29.
The subject of assay [3] is alkaline phosphatase (ALP) activity in C2C12 cells. Type of assay: cell-based. The settings on record: concentration response; for WntCondMedia_Alk Phos C2C12 IC50/EC50: assay number 6.
The subject of a further assay is SW480. Kind of assay: cells. In kind it is cell-based. The settings on record: for Basal_Viability ATP SW480 IC50/EC50: assay number 24.
In a further assay the test system is Colo320. Kind of assay: cells. Type of assay: cell-based. Particulars: for Basal_Viability ATP Colo 320 IC50/EC50: assay number 27.
Another assay concerns DLD-1. Briefly: cells. In kind it is cell-based. The settings on record: for Basal_Viability ATP DLD-1 IC50/EC50: assay number 23.
In a further assay the target is T1, hJAK2 (Homo sapiens, UniProt O60674).
T1 construct: purchased Cerep (LANCE kinase assay platform, contract assay)
T1 sequence (O60674 whole entry): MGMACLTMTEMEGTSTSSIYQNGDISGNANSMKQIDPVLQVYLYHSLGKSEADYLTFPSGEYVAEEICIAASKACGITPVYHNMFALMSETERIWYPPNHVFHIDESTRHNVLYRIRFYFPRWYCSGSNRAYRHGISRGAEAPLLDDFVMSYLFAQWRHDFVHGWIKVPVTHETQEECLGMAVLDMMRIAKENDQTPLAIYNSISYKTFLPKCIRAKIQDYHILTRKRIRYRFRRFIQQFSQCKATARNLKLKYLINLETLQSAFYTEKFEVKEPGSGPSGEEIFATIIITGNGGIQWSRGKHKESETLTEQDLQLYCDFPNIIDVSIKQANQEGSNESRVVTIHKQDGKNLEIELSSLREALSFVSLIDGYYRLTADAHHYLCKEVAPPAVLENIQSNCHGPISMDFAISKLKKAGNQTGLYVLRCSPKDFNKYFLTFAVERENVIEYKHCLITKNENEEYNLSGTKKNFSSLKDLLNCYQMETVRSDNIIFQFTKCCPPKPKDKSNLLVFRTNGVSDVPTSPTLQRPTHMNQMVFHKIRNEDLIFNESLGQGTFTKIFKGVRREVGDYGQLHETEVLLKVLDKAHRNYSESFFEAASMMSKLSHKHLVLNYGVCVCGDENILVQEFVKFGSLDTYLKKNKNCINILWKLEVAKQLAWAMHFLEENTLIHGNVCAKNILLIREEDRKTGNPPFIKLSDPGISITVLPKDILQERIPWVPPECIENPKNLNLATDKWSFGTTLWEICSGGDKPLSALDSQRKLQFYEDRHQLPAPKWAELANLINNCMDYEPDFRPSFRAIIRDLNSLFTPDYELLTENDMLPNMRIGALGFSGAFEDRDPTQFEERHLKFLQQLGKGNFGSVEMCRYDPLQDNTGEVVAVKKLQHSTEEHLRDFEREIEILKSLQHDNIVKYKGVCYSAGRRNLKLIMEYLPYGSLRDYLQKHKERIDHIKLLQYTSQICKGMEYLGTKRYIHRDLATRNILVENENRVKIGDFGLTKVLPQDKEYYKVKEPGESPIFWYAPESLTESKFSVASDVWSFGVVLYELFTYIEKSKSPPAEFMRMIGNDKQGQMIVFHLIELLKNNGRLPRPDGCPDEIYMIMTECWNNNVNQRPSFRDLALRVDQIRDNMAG
Kind of assay: Cerep LANCE kinase assay hJAK2 (S1 assay 33). Particulars: for hJAK2 LANCE IC50/EC50: assay number 33. In kind it is biochemical. Background: Time-resolved FRET reads energy transfer from a long-lived donor to a nearby acceptor.

The subject of another assay is HeLa cells. Briefly: cells. Type of assay: cell-based. Particulars: for Hela CellCycMod PI 2N IC50/EC50: assay number 14; for Hela CellCycMod PI 4N IC50/EC50: assay number 16; for Hela CellCycMod PI MI IC50/EC50: assay number 17; for Hela CellCycMod PI Cell Number IC50/EC50: assay number 18.
For the next assay, the system named is HCT116. Briefly: cells. In kind it is cell-based. The settings on record: basal; for Basal_Viability ATP HCT116 IC50/EC50: assay number 25.
A further assay addresses T2, hp70S6K1 (RPS6KB1) (Homo sapiens, UniProt P23443).
T2 construct: purchased Cerep (LANCE kinase assay platform, contract assay)
Briefly: Cerep LANCE kinase assay hp70S6K1 (S1 assay 31). In kind it is biochemical. The settings on record: for hp70S6K1 LANCE IC50/EC50: assay number 31.

In assay [4] the test system is HCT116 cells treated with a GSK3β inhibitor. Kind of assay: cells. Particulars: for GSK3b inh pretreated_Viability ATP HCT116 IC50/EC50: assay number 26, GSK3b inhibitor pretreated. Type of assay: cell-based.
Another assay has as its target T3, hFLT3 (Homo sapiens, UniProt P36888).
T3 construct: purchased Cerep (LANCE kinase assay platform, contract assay)
Kind of assay: Cerep LANCE kinase assay hFLT3 (S1 assay 35). Type of assay: biochemical. Particulars: for hFLT3 LANCE IC50/EC50: assay number 35.

A further assay concerns the target T4, hGSK3b (Homo sapiens, UniProt P49841).
T4 construct: purchased Cerep (LANCE kinase assay platform, contract assay)
Briefly: Cerep LANCE kinase assay hGSK3b (S1 assay 34). The settings on record: for hGSK3b LANCE IC50/EC50: assay number 34. In kind it is biochemical.

Assay [5] concerns nuclear β-catenin in C2C12 cells. Briefly: cells. In kind it is cell-based. Particulars: concentration response; for WntCondMedia_bCatenin C2C12 IC50/EC50: assay number 5.
The next assay addresses T5, hKDR (Homo sapiens, UniProt P35968).
T5 construct: purchased Cerep (LANCE kinase assay platform, contract assay)
Briefly: Cerep LANCE kinase assay hKDR (S1 assay 32). Type of assay: biochemical. The settings on record: for hKDR LANCE IC50/EC50: assay number 32.

A further assay has as its system SNU-C1. Briefly: cells. In kind it is cell-based. The settings on record: for Basal_Viability ATP SNU-C1 IC50/EC50: assay number 30.
For the next assay, the system named is HT-29. Briefly: cells. In kind it is cell-based. Particulars: for Basal_Viability ATP HT-29 IC50/EC50: assay number 28.

T2 sequence (P23443 whole entry): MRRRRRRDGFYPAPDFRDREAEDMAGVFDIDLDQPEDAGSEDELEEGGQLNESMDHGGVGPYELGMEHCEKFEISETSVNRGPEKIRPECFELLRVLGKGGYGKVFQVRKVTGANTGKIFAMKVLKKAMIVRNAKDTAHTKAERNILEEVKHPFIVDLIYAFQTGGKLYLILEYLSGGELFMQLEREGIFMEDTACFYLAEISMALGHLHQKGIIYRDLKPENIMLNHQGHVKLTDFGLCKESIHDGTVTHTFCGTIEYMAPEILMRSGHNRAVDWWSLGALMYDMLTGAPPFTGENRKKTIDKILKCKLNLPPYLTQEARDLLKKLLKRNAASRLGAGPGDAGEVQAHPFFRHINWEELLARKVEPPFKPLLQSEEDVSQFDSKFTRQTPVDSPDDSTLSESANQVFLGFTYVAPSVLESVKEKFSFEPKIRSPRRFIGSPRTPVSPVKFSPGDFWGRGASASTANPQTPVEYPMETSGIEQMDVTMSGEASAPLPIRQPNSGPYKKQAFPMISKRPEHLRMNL
T3 sequence (P36888 27-993): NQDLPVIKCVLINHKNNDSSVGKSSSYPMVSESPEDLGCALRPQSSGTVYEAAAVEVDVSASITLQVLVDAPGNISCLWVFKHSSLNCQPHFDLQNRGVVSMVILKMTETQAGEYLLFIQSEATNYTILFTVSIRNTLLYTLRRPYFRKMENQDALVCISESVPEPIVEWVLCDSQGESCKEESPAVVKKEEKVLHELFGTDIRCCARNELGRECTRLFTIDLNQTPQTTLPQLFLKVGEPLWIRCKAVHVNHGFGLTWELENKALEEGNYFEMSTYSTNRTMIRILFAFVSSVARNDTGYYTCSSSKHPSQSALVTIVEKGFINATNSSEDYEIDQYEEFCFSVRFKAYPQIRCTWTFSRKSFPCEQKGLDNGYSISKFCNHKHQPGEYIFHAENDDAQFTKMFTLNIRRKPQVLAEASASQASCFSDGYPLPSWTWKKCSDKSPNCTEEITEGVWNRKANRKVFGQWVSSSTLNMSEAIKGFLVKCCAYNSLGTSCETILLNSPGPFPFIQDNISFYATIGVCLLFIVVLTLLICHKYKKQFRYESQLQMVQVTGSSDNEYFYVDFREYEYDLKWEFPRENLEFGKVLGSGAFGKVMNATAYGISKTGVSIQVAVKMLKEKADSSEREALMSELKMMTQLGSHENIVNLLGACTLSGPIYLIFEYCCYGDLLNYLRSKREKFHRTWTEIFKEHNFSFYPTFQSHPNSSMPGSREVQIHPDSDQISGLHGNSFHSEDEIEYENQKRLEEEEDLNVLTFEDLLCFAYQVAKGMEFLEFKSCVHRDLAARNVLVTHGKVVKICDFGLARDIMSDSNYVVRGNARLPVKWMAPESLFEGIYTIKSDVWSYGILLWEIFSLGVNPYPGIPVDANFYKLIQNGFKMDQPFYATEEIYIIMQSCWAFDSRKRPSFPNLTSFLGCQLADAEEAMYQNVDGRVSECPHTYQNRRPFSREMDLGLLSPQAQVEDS
T4 sequence (P49841 whole entry): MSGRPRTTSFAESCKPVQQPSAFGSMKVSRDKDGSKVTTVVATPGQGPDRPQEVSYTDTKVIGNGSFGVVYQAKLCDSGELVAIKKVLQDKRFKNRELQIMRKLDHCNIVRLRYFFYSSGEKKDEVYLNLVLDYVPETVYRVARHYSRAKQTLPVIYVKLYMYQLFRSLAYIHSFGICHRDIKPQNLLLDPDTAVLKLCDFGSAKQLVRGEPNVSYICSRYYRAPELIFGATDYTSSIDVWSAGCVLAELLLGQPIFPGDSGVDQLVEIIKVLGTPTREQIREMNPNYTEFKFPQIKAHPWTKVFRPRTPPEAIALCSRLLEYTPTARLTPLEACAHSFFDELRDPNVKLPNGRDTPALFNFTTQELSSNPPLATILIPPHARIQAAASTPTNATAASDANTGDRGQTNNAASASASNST
T5 sequence (P35968 20-1356): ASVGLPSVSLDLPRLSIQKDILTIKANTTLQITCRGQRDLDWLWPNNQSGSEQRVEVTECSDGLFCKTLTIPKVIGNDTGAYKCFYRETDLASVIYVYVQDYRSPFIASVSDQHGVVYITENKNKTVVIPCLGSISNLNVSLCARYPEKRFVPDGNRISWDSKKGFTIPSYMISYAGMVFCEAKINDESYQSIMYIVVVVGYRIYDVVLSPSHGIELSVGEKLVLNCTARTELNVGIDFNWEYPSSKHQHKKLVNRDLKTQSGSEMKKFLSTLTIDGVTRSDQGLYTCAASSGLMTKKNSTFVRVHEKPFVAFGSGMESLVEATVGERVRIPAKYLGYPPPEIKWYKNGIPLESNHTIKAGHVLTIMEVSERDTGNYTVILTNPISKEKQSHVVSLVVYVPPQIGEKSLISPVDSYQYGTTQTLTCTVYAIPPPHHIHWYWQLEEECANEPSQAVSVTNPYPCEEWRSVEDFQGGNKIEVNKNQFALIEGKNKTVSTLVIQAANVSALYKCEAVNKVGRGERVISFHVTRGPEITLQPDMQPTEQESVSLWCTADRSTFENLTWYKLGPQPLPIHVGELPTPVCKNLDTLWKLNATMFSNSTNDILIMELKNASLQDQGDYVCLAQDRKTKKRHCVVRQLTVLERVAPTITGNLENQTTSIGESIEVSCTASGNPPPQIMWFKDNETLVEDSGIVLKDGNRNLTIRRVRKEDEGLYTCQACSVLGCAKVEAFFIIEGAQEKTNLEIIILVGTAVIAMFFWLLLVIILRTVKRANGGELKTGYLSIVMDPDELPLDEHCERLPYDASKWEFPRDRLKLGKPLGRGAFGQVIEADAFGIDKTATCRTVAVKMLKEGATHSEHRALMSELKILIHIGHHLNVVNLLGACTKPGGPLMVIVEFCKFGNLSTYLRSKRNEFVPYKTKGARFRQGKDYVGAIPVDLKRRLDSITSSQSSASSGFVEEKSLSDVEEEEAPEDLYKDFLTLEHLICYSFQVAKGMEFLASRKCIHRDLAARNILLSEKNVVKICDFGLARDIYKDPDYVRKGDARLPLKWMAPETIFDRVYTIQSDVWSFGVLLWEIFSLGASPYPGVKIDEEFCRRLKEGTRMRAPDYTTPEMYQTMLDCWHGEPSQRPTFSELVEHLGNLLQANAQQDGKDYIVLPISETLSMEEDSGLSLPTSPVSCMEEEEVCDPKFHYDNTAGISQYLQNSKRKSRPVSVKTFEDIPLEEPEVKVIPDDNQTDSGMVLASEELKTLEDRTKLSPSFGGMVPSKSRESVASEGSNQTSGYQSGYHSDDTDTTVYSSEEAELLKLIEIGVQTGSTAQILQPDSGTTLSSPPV

Turning to `COCc1c(C(C)C)nc(C(C)C)c(/C=C/[C@@H](O)C[C@@H](O)CC(=O)[O-])c1-c1ccc(F)cc1.[Na+]` [NCGC00164625-04], in [1], the “VEGF_ADSC\ECFC Angio Hoechst NucArea IC50/EC50” value is 0.259 µM. Also, the “VEGF_ADSC\ECFC Angio CD31 TubeArea IC50/EC50” value in [2] amounted to 0.0894 µM. In the assay with RKO (basal), the “Basal_Viability ATP RKO IC50/EC50” value was found to be 1.013 µM. Also, the “WntCondMedia_Alk Phos C2C12 IC50/EC50” value in assay [3] is on record as greater than 20 µM. Moreover, the “Basal_Viability ATP SW480 IC50/EC50” value in the assay with SW480 (basal) was 0.1433 µM. Moreover, in the assay with Colo320 (basal), the “Basal_Viability ATP Colo 320 IC50/EC50” value amounted to 1.924 µM. In addition, the “Basal_Viability ATP DLD-1 IC50/EC50” value in the assay on DLD-1 (basal) was 2.507 µM. Moreover, on hJAK2, the “hJAK2 LANCE IC50/EC50” value was greater than 20 µM. Also, the “Hela CellCycMod PI 2N IC50/EC50” value in the assay on HeLa cells (2N) was greater than 10 µM. Moreover, in the assay on HeLa cells (assay number 15, S phase), the “Hela CellCycMod PI S Phase IC50/EC50” value is greater than 10 µM. Besides, the “Hela CellCycMod PI 4N IC50/EC50” value with HeLa cells (4N) is given as greater than 10 µM. The “Hela CellCycMod PI MI IC50/EC50” value in the assay on HeLa cells (MI) is on record as greater than 10 µM. Besides, the “Hela CellCycMod PI Cell Number IC50/EC50” value with HeLa cells is greater than 10 µM. In the assay on HCT116, the “Basal_Viability ATP HCT116 IC50/EC50” value was 0.2403 µM. Moreover, at hp70S6K1 (RPS6KB1), the “hp70S6K1 LANCE IC50/EC50” value is reported as greater than 20 µM. Further, the “GSK3b inh pretreated_Viability ATP HCT116 IC50/EC50” value in [4] amounted to 0.05291 µM. The “hFLT3 LANCE IC50/EC50” value at hFLT3 is greater than 20 µM. The “hGSK3b LANCE IC50/EC50” value at hGSK3b is recorded as greater than 20 µM. For the same compound, the “WntCondMedia_bCatenin C2C12 IC50/EC50” value in assay [5] was greater than 6.667 µM. The “hKDR LANCE IC50/EC50” value at hKDR is recorded as greater than 20 µM. Further, the “Basal_Viability ATP SNU-C1 IC50/EC50” value with SNU-C1 (basal) turned out to be 1.8733 µM. The “Basal_Viability ATP HT-29 IC50/EC50” value in the assay with HT-29 (basal) was found to be 1.212 µM.

Take `O=c1c(-c2ccccc2)c1-c1ccccc1` [NCGC00166113-04]: the “IC50/EC50, VEGF_ADSC\ECFC Angio Hoechst NucArea (assay number 3)” value in [1] was 6.7548 µM. Besides, the “IC50/EC50, VEGF_ADSC\ECFC Angio CD31 TubeArea (assay number 2)” value in assay [2] was determined as 3.8353 µM. Further, the “IC50/EC50, Basal_Viability ATP RKO (assay number 29)” value in the assay with RKO (basal) is given as greater than 20 µM. Moreover, the “IC50/EC50, WntCondMedia_Alk Phos C2C12 (assay number 6)” value in assay [3] is recorded as 3.6201 µM. Besides, the “IC50/EC50, Basal_Viability ATP SW480 (assay number 24)” value in the assay on SW480 (basal) was greater than 20 µM. Besides, in the assay on Colo320 (basal), the “IC50/EC50, Basal_Viability ATP Colo 320 (assay number 27)” value was 3.1012 µM. Further, the “IC50/EC50, Basal_Viability ATP DLD-1 (assay number 23)” value with DLD-1 (basal) amounted to 4.208 µM. Moreover, the “IC50/EC50, hJAK2 LANCE (assay number 33)” value at hJAK2 is on record as greater than 20 µM. For the same compound, in the assay on HeLa cells (2N), the “IC50/EC50, Hela CellCycMod PI 2N (assay number 14)” value is greater than 10 µM. Also, the “IC50/EC50, Hela CellCycMod PI 4N (assay number 16)” value in the assay with HeLa cells (4N) is reported as greater than 10 µM. For the same compound, in the assay on HeLa cells (Cell Number), the “IC50/EC50, Hela CellCycMod PI Cell Number (assay number 18)” value worked out at 1.6859 µM. In the assay with HeLa cells (MI), the “IC50/EC50, Hela CellCycMod PI MI (assay number 17)” value is greater than 10 µM. Moreover, in the assay with HCT116, the “IC50/EC50, Basal_Viability ATP HCT116 (assay number 25)” value is recorded as greater than 20 µM. In addition, at hp70S6K1 (RPS6KB1), the “IC50/EC50, hp70S6K1 LANCE (assay number 31)” value is recorded as greater than 20 µM. Besides, the “IC50/EC50, GSK3b inh pretreated_Viability ATP HCT116 (assay number 26)” value in [4] (GSK3b inh pretreated) worked out at 7.707 µM. At hFLT3, the “IC50/EC50, hFLT3 LANCE (assay number 35)” value is on record as greater than 20 µM. The “IC50/EC50, hGSK3b LANCE (assay number 34)” value on hGSK3b is greater than 20 µM. Further, the “IC50/EC50, WntCondMedia_bCatenin C2C12 (assay number 5)” value in assay [5] is greater than 20 µM. The “IC50/EC50, hKDR LANCE (assay number 32)” value at hKDR was greater than 20 µM. Further, the “IC50/EC50, Basal_Viability ATP SNU-C1 (assay number 30)” value in the assay with SNU-C1 (basal) was greater than 20 µM. For the same compound, the “IC50/EC50, Basal_Viability ATP HT-29 (assay number 28)” value in the assay with HT-29 (basal) is given as greater than 20 µM.

As for `Cc1nc2ccc(CN(C)c3ccc(C(=O)N[C@@H](CCC(=O)O)C(=O)O)s3)cc2c(=O)[nH]1` [NCGC00229704-01], in [1], the “VEGF_ADSC\ECFC Angio Hoechst NucArea IC50/EC50” value is recorded as greater than 10 µM. Besides, the “VEGF_ADSC\ECFC Angio CD31 TubeArea IC50/EC50” value in assay [2] is 0.3544 µM. Besides, in the assay with RKO, the “Basal_Viability ATP RKO IC50/EC50” value was 0.00288 µM. The “WntCondMedia_Alk Phos C2C12 IC50/EC50” value in assay [3] amounted to 0.0042 µM. Also, the “Basal_Viability ATP SW480 IC50/EC50” value with SW480 is 0.001 µM. Also, the “Basal_Viability ATP Colo 320 IC50/EC50” value in the assay with Colo320 is greater than 20 µM. Besides, the “Basal_Viability ATP DLD-1 IC50/EC50” value in the assay on DLD-1 was greater than 20 µM. Further, the “hJAK2 LANCE IC50/EC50” value on hJAK2 is reported as greater than 20 µM. The “Hela CellCycMod PI 2N IC50/EC50” value in the assay with HeLa cells (2N) is listed as greater than 10 µM. Besides, the “Hela CellCycMod PI 4N IC50/EC50” value in the assay with HeLa cells (4N) was greater than 10 µM. Moreover, the “Hela CellCycMod PI MI IC50/EC50” value with HeLa cells (MI) is recorded as greater than 10 µM. In addition, the “Hela CellCycMod PI Cell Number IC50/EC50” value in the assay with HeLa cells is on record as greater than 10 µM. In the assay on HCT116, the “Basal_Viability ATP HCT116 IC50/EC50” value turned out to be 0.00424 µM. The “hp70S6K1 LANCE IC50/EC50” value on hp70S6K1 (RPS6KB1) is greater than 20 µM. For the same compound, in [4], the “GSK3b inh pretreated_Viability ATP HCT116 IC50/EC50” value was 0.0023 µM. The “hFLT3 LANCE IC50/EC50” value at hFLT3 is greater than 20 µM. Further, the “hGSK3b LANCE IC50/EC50” value on hGSK3b is 3.99 µM. Besides, in [5], the “WntCondMedia_bCatenin C2C12 IC50/EC50” value stood at 0.0127 µM. In addition, the “hKDR LANCE IC50/EC50” value at hKDR was greater than 20 µM. Further, in the assay on SNU-C1, the “Basal_Viability ATP SNU-C1 IC50/EC50” value is reported as greater than 20 µM. The “Basal_Viability ATP HT-29 IC50/EC50” value in the assay with HT-29 is greater than 20 µM.
